Measurements from ChEMBL document CHEMBL1141796, “Hirsutide, a cyclic tetrapeptide from a spider-derived entomopathogenic fungus, Hirsutella sp” (J Nat Prod, 2005).
Activity calls are given as the source filed them. No cut-off for these calls is given here.

What was measured:
Bacillus subtilis = assay: Antibacterial activity against Bacillus subtilis by agar diffusion assay; assay type: functional, organism-based
P388 = assay: Cytotoxicity against mouse P388 cells; assay type: functional, cell-based
Escherichia coli = assay: Antibacterial activity against Escherichia coli by agar diffusion assay; assay type: functional, organism-based
Candida albicans = assay: Antifungal activity against Candida albicans by agar diffusion assay; assay type: functional, organism-based
Amorphotheca resinae = assay: Antifungal activity against Cladosporium resinae by agar diffusion assay; assay type: functional, organism-based
[1] = tested on: Trichophyton mentagrophytes; assay: Antifungal activity against Trichophyton mentagrophytes by agar diffusion assay; assay type: functional, organism-based

CC(=O)O[C@@H]1/C=C/[C@@](C)(O)C(=O)[C@@H](C)C/C=C/[C@H]2[C@@H]3O[C@]3(C)[C@@H](C)[C@H]3[C@H](Cc4ccccc4)NC(=O)[C@@]312 [CYTOCHALASIN Q]
Activity (Bacillus subtilis): inactive
IC50 (P388): 2.4 µM
Activity (Escherichia coli): inactive
Activity (Candida albicans): inactive
Activity (Amorphotheca resinae): inactive
Activity [1]: inactive
